The target in data set [1] is T1, BceF kinase domain (Burkholderia cepacia, UniProt Q0GYW2).
T1 construct: cytoplasmic kinase domain, residues 471-741; synthetic codon-optimised gene, N-terminal His6-TEV; E. coli BL21(DE3); partly phosphorylated C-terminal tyrosines
Kind of data set: X-ray crystal structure, […] Å. It counts as binding. Particulars: endogenous ADP co-purified from E. coli; active site; crystals pH 5.5.

Data set [2] concerns the target T1, BceF kinase domain. Kind of data set: microscale thermophoresis, NT-647 labelled protein. It counts as binding. For orientation: In MST a laser heats a spot of the sample, and binding alters the fluorescence response.
Data set [3] concerns the molecule itself. Kind of data set: SEC-MALS; Superdex 75 10/300 column, miniDAWN TREOS and Optilab T-rEX; SEC analysis at pH 7.5; single species of 59.1 kDa against a calculated monomer of 29.4 kDa.

We go through 3 molecules from article PMC8394532, “Structural and Functional Insights into the Biofilm-Associated BceF Tyrosine Kinase Domain from Burkholderia cepacia” (Biomolecules, 2021).

`Nc1ncnc2c1ncn2[C@@H]1O[C@H](COP(=O)(O)OP(=O)(O)O)[C@@H](O)[C@H]1O` [ADP]: the “X-ray crystal structure, 1.85 Å” value at BceF kinase domain [1] was “The structure revealed an adenosine diphosphate (ADP) molecule bound at the active site”.

For `Nc1ncnc2c1ncn2[C@@H]1O[C@H](COP(=O)(O)OP(=O)(O)NP(=O)(O)O)[C@@H](O)[C@H]1O` [AMP-PNP], the equilibrium dissociation constant (Kd) on BceF kinase domain [2] worked out at 1640 ± 220 µM.

B1: BceF kinase domain (residues 471-741) from Burkholderia cepacia (domain or fragment)
chain: RRNMFQGIEDPDRIERAFNLPLYGLVPQSAEQVKLDAQAEKSGSRTRPILASLRPKDLSVESLRSLRTAMQFAMMDAKNRVIVLTGPTPGIGKSFLTVNLAVLLAHSGKRVLLIDADMRRGLLDRYFGLTSQPGLSELLSDQSALEDAVRETPVQGLSFISAGTRPPNPSELLMSTRLPQYLEGLGKRYDVVLIDSPPVLAVTDATIIGRMAGSTFLVLRSGMHTEGEIADAIKRLRTAGVDLEGGIFNGVPPKARGYGRGYAAVHEYLSA
modifications: partly phosphotyrosine in the C-terminal tail 725-741 (MS/MS: 28% non-phosphorylated, 68% monophosphorylated mostly at the third tyrosine, position 14 of the peptide)
notes: His6 tag and TEV site at the N-terminus; cleaved with TEV in the preparation for crystallisation; also called isolated BceF kinase domain; BceF tyrosine kinase domain; source: E. coli BL21(DE3), purified (HisTrap, TEV cleavage, second HisTrap, SEC Superdex 200); not shown: His6, N-terminal, cleaved
Turning to B1, the “stoichiometry N” value in data set [3] was 2.

A word on the Kd: it is a measure of binding affinity in units of concentration. The low end stands for higher affinity, the high end for lower affinity. By stoichiometry N is commonly meant the number of molecules, sites or subunits per partner or assembly.
